This passage reports IC50 results from patent US20260035365A1, “1H-PYRROLO[3,2-B]PYRIDINE DERIVATIVES AS IRREVERSIBLE INHIBITORS OF MUTANT EGFR FOR THE TREATMENT OF CANCER” (Bayer Aktiengesellschaft, priority 2022, published 2026).

Assay [1] addresses mutEGFR (D770_N771insNPG, T790). The experiment in a line: mutEGFR (D770_N771insNPG, T790) kinase assay. Format: biochemical, human.
Assay [2] deals with mutEGFR (D770_N771insSVD) (Homo sapiens, UniProt P00533, INS767SVD). Kind of assay: Exon20-mutant-EGFR (D770_N771insSVD) TR-FRET kinase assay. Format: biochemical. The following applies: 2 mM ATP, 15 min preincubation. The method in brief: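 GST-fused human EGFR fragment R669-A1210 carrying the SVD insertion, Sf9-expressed, typically 15 pg/μl, was preincubated with compound for 15 min at 22° C in pH 7.0 Hepes/MgCl2 buffer. Phosphorylation was read by HTRF (665/620 nm ratio), normalised to no-inhibitor and no-enzyme controls.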
Sequence of mutEGFR (D770_N771insSVD) (P00533 with tags, fused parts or gaps INS767SVD limits assumed): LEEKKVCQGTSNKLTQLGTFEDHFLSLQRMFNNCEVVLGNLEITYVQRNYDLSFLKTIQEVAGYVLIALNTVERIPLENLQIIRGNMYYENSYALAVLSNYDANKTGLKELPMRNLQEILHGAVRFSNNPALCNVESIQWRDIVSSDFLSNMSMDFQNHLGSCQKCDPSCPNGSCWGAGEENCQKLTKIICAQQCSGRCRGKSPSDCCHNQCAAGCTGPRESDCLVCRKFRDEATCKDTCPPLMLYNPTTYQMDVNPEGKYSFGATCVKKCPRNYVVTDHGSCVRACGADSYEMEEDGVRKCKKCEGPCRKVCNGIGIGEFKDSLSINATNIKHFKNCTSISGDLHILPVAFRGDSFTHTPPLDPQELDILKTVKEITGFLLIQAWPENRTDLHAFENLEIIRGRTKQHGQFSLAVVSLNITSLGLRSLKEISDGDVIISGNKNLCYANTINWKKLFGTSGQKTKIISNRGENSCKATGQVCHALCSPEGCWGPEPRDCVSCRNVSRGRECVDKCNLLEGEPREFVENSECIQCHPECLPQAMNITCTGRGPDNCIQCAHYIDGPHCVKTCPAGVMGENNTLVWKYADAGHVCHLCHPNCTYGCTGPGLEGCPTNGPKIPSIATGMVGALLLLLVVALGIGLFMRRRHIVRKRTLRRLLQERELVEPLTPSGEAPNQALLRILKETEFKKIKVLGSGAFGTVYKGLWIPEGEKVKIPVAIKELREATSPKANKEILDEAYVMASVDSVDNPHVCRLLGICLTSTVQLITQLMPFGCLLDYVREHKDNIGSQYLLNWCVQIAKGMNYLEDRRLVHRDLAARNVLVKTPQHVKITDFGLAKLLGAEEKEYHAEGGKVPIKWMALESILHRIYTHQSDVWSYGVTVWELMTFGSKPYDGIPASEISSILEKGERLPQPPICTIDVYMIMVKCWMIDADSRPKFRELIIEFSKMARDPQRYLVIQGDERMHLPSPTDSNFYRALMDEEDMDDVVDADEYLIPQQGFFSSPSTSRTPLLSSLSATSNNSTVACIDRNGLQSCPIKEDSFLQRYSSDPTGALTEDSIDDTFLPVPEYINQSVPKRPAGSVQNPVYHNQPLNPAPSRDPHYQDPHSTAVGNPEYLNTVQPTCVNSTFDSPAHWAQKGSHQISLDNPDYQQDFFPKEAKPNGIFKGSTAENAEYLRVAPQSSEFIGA

A further assay deals with BA/F3 (insSVD) cells. The experiment in a line: Ba/F3 cell survival assay (Cell Titer-Glo), EGFR-insSVD. Format: cell-based. The following applies: without IL-3, with EGF. The method in brief: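 Ba/F3 cells stably expressing EGFR-insSVD or insSVD T790M via retrovirus (puromycin-selected), switched from IL-3 to 10 ng/mL EGF for 2 days, then plated at 4000 cells/well. Compound added by 100 nL pin transfer; 48 h at 37° C. Viability by CellTiter-Glo luminescence.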

pIC50: −log10 of the molar value.

Sequence of mutEGFR (D770_N771insNPG, T790) (P00533 with tags, fused parts or gaps INS770NPG limits assumed): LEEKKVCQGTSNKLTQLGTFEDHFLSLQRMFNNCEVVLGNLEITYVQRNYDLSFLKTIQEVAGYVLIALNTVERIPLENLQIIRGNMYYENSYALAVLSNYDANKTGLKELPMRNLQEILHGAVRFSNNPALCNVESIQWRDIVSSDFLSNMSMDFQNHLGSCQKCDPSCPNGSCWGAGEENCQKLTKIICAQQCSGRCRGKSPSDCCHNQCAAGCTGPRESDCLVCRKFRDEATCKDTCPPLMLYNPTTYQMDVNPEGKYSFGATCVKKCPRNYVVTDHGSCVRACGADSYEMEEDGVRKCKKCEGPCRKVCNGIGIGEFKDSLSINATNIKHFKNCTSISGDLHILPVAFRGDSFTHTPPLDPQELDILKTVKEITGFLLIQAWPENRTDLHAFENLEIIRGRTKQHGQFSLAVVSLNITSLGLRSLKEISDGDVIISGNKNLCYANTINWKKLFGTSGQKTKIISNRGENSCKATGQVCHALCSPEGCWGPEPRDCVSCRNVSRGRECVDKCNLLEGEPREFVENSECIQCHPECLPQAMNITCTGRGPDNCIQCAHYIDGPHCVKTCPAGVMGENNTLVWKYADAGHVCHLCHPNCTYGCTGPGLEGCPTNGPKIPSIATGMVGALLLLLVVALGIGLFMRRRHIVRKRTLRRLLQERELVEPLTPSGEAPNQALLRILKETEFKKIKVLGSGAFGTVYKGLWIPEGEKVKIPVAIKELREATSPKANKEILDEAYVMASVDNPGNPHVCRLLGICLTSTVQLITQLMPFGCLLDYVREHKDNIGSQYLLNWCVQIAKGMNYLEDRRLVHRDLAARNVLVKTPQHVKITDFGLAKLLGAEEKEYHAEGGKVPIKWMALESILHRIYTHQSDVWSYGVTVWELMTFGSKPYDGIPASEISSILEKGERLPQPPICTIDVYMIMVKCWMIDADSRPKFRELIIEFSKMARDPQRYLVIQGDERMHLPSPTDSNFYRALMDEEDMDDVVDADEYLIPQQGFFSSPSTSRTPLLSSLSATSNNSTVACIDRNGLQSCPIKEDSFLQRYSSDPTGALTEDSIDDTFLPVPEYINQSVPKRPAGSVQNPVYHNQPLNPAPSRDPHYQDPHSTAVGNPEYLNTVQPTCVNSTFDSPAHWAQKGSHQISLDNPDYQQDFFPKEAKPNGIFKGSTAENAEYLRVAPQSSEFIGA

Take `CN(C)C/C=C/C(=O)N1CCOCC1COc1cnccc1-c1[nH]c2cccnc2c1-c1ccccc1` (stereo not drawn) [Example 150, (2E)-4-(dimethylamino)-1-[3-({[4-(3-phenyl-1H-pyrrolo[3,2-b]pyridin-2-yl)pyridin-3-yl]oxy}methyl)morpholin-4-yl]but-2-en-1-one]: the pIC50 in assay [1] is less than 4.70; in assay [2], 5.33; with BA/F3 (insSVD) cells (Mus musculus, BaF3, 48 h), 5.01.

Regarding `C=CC(=O)N1CCC[C@H]1COc1cnccc1-c1[nH]c2cccnc2c1-c1ccc(F)c(OC(F)F)c1` [Example 103, 1-[(2S)-2-{[(4-{3-[3-(difluoromethoxy)-4-fluorophenyl]-1H-pyrrolo[3,2-b]pyridin-2-yl}pyridin-3-yl)oxy]methyl}pyrrolidin-1-yl]prop-2-en-1-one], the negative-log IC50 (pIC50) in assay [1] is 7.77; in assay [2], 8.45; in the assay on BA/F3 (insSVD) cells (Mus musculus, BaF3, 48 h), 6.19.

Take `C=CS(=O)(=O)N(C)CCOc1cnccc1-c1[nH]c2cccnc2c1-c1cc(Cl)cc(Cl)c1` [Example 75, N-[2-({4-[3-(3,5-dichlorophenyl)-1H-pyrrolo[3,2-b]pyridin-2-yl]pyridin-3-yl}oxy)ethyl]-N-methylethenesulfonamide]: the pIC50 in assay [1] is 7.58; in assay [2], 7.35; with BA/F3 (insSVD) cells (Mus musculus, BaF3, 48 h) it was 5.69.

`C=CC(=O)N1CC=C[C@H]1COc1cnccc1-c1[nH]c2cccnc2c1-c1ccccc1` [Example 115, 1-[(2S)-2-({[4-(3-phenyl-1H-pyrrolo[3,2-b]pyridin-2-yl)pyridin-3-yl]oxy}methyl)-2,5-dihydro-1H-pyrrol-1-yl]prop-2-en-1-one]: the pIC50 in assay [1] is 9.06; in assay [2], 9.55; with BA/F3 (insSVD) cells (Mus musculus, BaF3, 48 h) it was 7.91.

Consider `C=CC(=O)N(C)CCOc1cnccc1-c1[nH]c2cccnc2c1-c1cc(F)cc(F)c1` [Example 52, N-[2-({4-[3-(3,5-difluorophenyl)-1H-pyrrolo[3,2-b]pyridin-2-yl]pyridin-3-yl}oxy)ethyl]-N-methylprop-2-enamide], for which the pIC50 was 6.69 in assay [1]; 7.11 in assay [2]; 5.51 with BA/F3 (insSVD) cells (Mus musculus, BaF3, 48 h).

`C=CC(=O)N1CCC[C@H]1COc1cnccc1-c1[nH]c2cccnc2c1-c1ccc2ccoc2c1` [Example 82, 1-{(2S)-2-[({4-[3-(1-benzofuran-6-yl)-1H-pyrrolo[3,2-b]pyridin-2-yl]pyridin-3-yl}oxy)methyl]pyrrolidin-1-yl}prop-2-en-1-one]: the pIC50 in assay [1] was 9.08; in assay [2] it was 9.57; in the assay with BA/F3 (insSVD) cells (Mus musculus, BaF3, 48 h), 7.43.

In the case of `C=CC(=O)N1C[C@@H](N(C)CCN(C)C)C[C@H]1COc1cnccc1-c1[nH]c2cccnc2c1-c1ccccc1` (single isomer, unassigned) [Example 131], the pIC50 in assay [1] is 8.45; in assay [2], 8.93; in the assay on BA/F3 (insSVD) cells (48 h), 7.26.

Turning to `C=CC(=O)N1CCC[C@H]1COc1cnccc1-c1[nH]c2cccnc2c1-c1cc(C(F)(F)F)ccc1F` [Example 76, 1-[(2S)-2-{[(4-{3-[2-fluoro-5-(trifluoromethyl)phenyl]-1H-pyrrolo[3,2-b]pyridin-2-yl}pyridin-3-yl)oxy]methyl}pyrrolidin-1-yl]prop-2-en-1-one], the pIC50 in assay [1] was 8.02; in assay [2] it was 8.56; in the assay with BA/F3 (insSVD) cells (Mus musculus, BaF3, 48 h), 7.01.

Consider `C=CC(=O)N1CCC1(C)COc1cnccc1-c1[nH]c2cccnc2c1-c1cccc(C(F)(F)F)c1` (stereo not drawn) [Example 147, 1-[(2IRS)-2-methyl-2-{[(4-{3-[3-(trifluoromethyl)phenyl]-1H-pyrrolo[3,2-b]pyridin-2-yl}pyridin-3-yl)oxy]methyl}azetidin-1-yl]prop-2-en-1-one], for which the pIC50 is 5.43 in assay [1]; 6.16 in assay [2]; 5.19 in the assay on BA/F3 (insSVD) cells (Mus musculus, BaF3, 48 h).

On to `C=CS(=O)(=O)N(C)CCOc1cnccc1-c1[nH]c2cccnc2c1-c1cc(F)ccc1F` [Example 61, N-[2-({4-[3-(2,5-difluorophenyl)-1H-pyrrolo[3,2-b]pyridin-2-yl]pyridin-3-yl}oxy)ethyl]-N-methylethenesulfonamide], for which the pIC50 is 8.55 in assay [1]; 9.06 in assay [2]; 6.92 with BA/F3 (insSVD) cells (Mus musculus, BaF3, 48 h).

Regarding `C=CC(=O)N(C)CCOc1cnccc1-c1[nH]c2cccnc2c1-c1ccc2cc[nH]c2c1` [Example 16, N-[2-({4-[3-(1H-indol-6-yl)-1H-pyrrolo[3,2-b]pyridin-2-yl]pyridin-3-yl}oxy)ethyl]-N-methylprop-2-enamide], the pIC50 was 7.49 in assay [1]; 8.12 in assay [2]; 6.23 with BA/F3 (insSVD) cells (Mus musculus, BaF3, 48 h).

For `C=CS(=O)(=O)N(C)CCOc1cnccc1-c1[nH]c2cccnc2c1-c1cc(CC)ccc1F` [Example 67, N-[2-({4-[3-(5-ethyl-2-fluorophenyl)-1H-pyrrolo[3,2-b]pyridin-2-yl]pyridin-3-yl}oxy)ethyl]-N-methylethenesulfonamide], the pIC50 in assay [1] was 7.84; in assay [2], 8.52; in the assay on BA/F3 (insSVD) cells (Mus musculus, BaF3, 48 h) it was 6.38.

In the case of `C=CC(=O)N(C)CCOc1cnccc1-c1[nH]c2cccnc2c1-c1cccc(C(C)C)c1` [Example 55, N-methyl-N-{2-[(4-{3-[3-(propan-2-yl)phenyl]-1H-pyrrolo[3,2-b]pyridin-2-yl}pyridin-3-yl)oxy]ethyl}prop-2-enamide], the pIC50 is 6.22 in assay [1]; 6.93 in assay [2]; 5.52 in the assay on BA/F3 (insSVD) cells (Mus musculus, BaF3, 48 h).

Turning to `C=CC(=O)N1CCC[C@H]1COc1cnccc1-c1[nH]c2cccnc2c1-c1ccccc1Cl` [Example 88, 1-{(2S)-2-[({4-[3-(2-chlorophenyl)-1H-pyrrolo[3,2-b]pyridin-2-yl]pyridin-3-yl}oxy)methyl]pyrrolidin-1-yl}prop-2-en-1-one], the pIC50 in assay [1] was 7.97; in assay [2] it was 8.72; in the assay with BA/F3 (insSVD) cells (Mus musculus, BaF3, 48 h) it was 6.78.

Take `C=CS(=O)(=O)N1CCC1(C)COc1cnccc1-c1[nH]c2cccnc2c1-c1cccc(C(F)(F)F)c1` (racemic) [Example 148, 2-(3-{[(2RS)-1-(ethenesulfonyl)-2-methylazetidin-2-yl]methoxy}pyridin-4-yl)-3-[3-(trifluoromethyl)phenyl]-1H-pyrrolo[3,2-b]pyridine]: the pIC50 in assay [1] is 6.20; in assay [2], 6.98; in the assay with BA/F3 (insSVD) cells (Mus musculus, BaF3, 48 h), 5.56.

As for `C#CC(=O)N1CCC(Oc2cnccc2-c2[nH]c3cccnc3c2-c2cccc(Cl)c2)C1` (racemic) [Example 120, 1-[(3RS)-3-({4-[3-(3-chlorophenyl)-1H-pyrrolo[3,2-b]pyridin-2-yl]pyridin-3-yl}oxy)pyrrolidin-1-yl]prop-2-yn-1-one], the pIC50 is 7.01 in assay [1]; 7.41 in assay [2]; 5.92 in the assay with BA/F3 (insSVD) cells (Mus musculus, BaF3, 48 h).

As to `C=CC(=O)N1CCC[C@H]1COc1cnccc1-c1[nH]c2cccnc2c1-c1ccc2cc[nH]c2c1` [Example 84, 1-{(2S)-2-[({4-[3-(1H-indol-6-yl)-1H-pyrrolo[3,2-b]pyridin-2-yl]pyridin-3-yl}oxy)methyl]pyrrolidin-1-yl}prop-2-en-1-one], the negative-log IC50 (pIC50) in assay [1] is 6.81; in assay [2], 7.49; with BA/F3 (insSVD) cells (Mus musculus, BaF3, 48 h), 5.45.

In the case of `C/C=C/C(=O)N1CCC[C@H]1COc1cnccc1-c1[nH]c2cccnc2c1-c1ccccc1` [Example 92, (2E)-1-[(2S)-2-({[4-(3-phenyl-1H-pyrrolo[3,2-b]pyridin-2-yl)pyridin-3-yl]oxy}methyl)pyrrolidin-1-yl]but-2-en-1-one], the pIC50 is less than 4.70 in assay [1]; 5.43 in assay [2]; 5.15 with BA/F3 (insSVD) cells (Mus musculus, BaF3, 48 h).

Turning to `C=CC(=O)N1C[C@@H](N(C)CCN(C)C)C[C@H]1COc1cnccc1-c1[nH]c2cccnc2c1-c1ccccc1` (single isomer, unassigned) [Example 132], the results for the pIC50 (in assay [1]; in assay [2]; in the assay on BA/F3 (insSVD) cells (48 h)) were 7.56, 8.03 and 6.74, respectively.

With `C=CC(=O)N1CCC[C@H]1COc1cnccc1-c1[nH]c2cccnc2c1-c1ccc2ccccc2c1` [Example 80, 1-{(2S)-2-[({4-[3-(naphthalen-2-yl)-1H-pyrrolo[3,2-b]pyridin-2-yl]pyridin-3-yl}oxy)methyl]pyrrolidin-1-yl}prop-2-en-1-one], the negative-log IC50 (pIC50) in assay [1] was 8.73; in assay [2] it was 9.23; in the assay with BA/F3 (insSVD) cells (Mus musculus, BaF3, 48 h), 6.79.

For the molecule `C=CC(=O)N1CC[C@H]1COc1cnccc1-c1[nH]c2cccnc2c1-c1cccc(C(F)(F)F)c1` (single isomer, unassigned) [Example 143], the pIC50 in assay [1] is 6.17; in assay [2] it was 6.89; with BA/F3 (insSVD) cells (Mus musculus, BaF3, 48 h), 5.42.

For `C=CS(=O)(=O)N(C)CCOc1cnccc1-c1[nH]c2cccnc2c1-c1cccc(OC)c1` [Example 69, N-[2-({4-[3-(3-methoxyphenyl)-1H-pyrrolo[3,2-b]pyridin-2-yl]pyridin-3-yl}oxy)ethyl]-N-methylethenesulfonamide], the pIC50 in assay [1] is 8.06; in assay [2], 8.44; with BA/F3 (insSVD) cells (Mus musculus, BaF3, 48 h), 6.54.

For the molecule `C=CC(=O)N(C)CCOc1cnccc1-c1[nH]c2cccnc2c1-c1cc(C)ccc1F` [Example 47, N-[2-({4-[3-(2-fluoro-5-methylphenyl)-1H-pyrrolo[3,2-b]pyridin-2-yl]pyridin-3-yl}oxy)ethyl]-N-methylprop-2-enamide], the pIC50 in assay [1] is 7.71; in assay [2], 7.48; with BA/F3 (insSVD) cells (Mus musculus, BaF3, 48 h) it was 6.31.

Turning to `Cn1ccc(C#CC(=O)N2CCC[C@H]2COc2cnccc2-c2[nH]c3cccnc3c2-c2ccccc2)n1` [Example 95, 3-(1-methyl-1H-pyrazol-3-yl)-1-[(2S)-2-({[4-(3-phenyl-1H-pyrrolo[3,2-b]pyridin-2-yl)pyridin-3-yl]oxy}methyl)pyrrolidin-1-yl]prop-2-yn-1-one], the pIC50 in assay [1] is 6.61; in assay [2], 7.15; with BA/F3 (insSVD) cells (Mus musculus, BaF3, 48 h), 6.17.
